# Values of other authors as cited in patent US6525037B1, “Method of treating atherosclerosis and complications resulting therefrom” (BioNumerik Pharmaceuticals, Inc., priority 2000, dated 2003).
# Settings: accepted value
smiles,measurement,value
[Cl-].[Na+] [common table salt],oral LD50,3750 mg/kg
